Experimental data reported in US7763426B2, “Probes and methods for detection of Escheridia coli and antibiotic resistance” (priority 2004, dated 2010).
“Also recorded” adds a separate entry of the source. {Fluorescein} = fluorescein label (binding site for anti-fluorescein Fab-HRP); {Biotin} = biotin (capture probe anchor)

Columns and labels:
Enterococcus 16S rRNA = assay: Amperometric detection of bacterial 16S rRNA, 65° C. hybridization (Examples 2, 3); format: binding, Enterococcus faecalis; conditions: for sensitivity of electrochemical sensor assay (cells detected): five-fold serial dilutions of enterococcal cells, capture probe EF207C, EF165D 5′-fluorescein, EF171D 3′-fluorescein
bacterial 16S rRNA [1] = assay: Sensor validation using control ATCC bacterial strains, UTI Chip with 7-detector-probe mixture (Example 3); format: binding
From the text: The following American Type Culture Collection (ATCC) strains were obtained from the UCLA Clinical Microbiology Laboratory: Escherichia coli strain 35218, Klebsiella pneumoniae strain 13883, K. oxytoca strain 49131, Enterobacter aerogenes strain 13048. E. cloacae strain 13047, Proteus mirabilis strain 12453, Pseudomonas aeruginosa strain 10145, Citrobacter freundii strain 8090, and Enterococcus faecalis strain 49532. Additional strains of uropathogenic bacteria were obtained from the UCLA Uropathogen Specimen Bank: E. coli strain Ec103, K. pneumoniae strain Kp295, P. mirabilis strain Pm278, P. aeruginosa strain Pa3, and E. faecalis strain Eo111. Isolation of uropathogens from clinical urine specimens was approved by the UCLA and VA Greater Los Angeles Healthcare System institutional Review Boards. The identity of all clinical strains was determined by standard biochemical assays and verified by 16S rRNA gene sequencing. The 16S rRNA genes were PCR amplified with universal primers 8UA and 1485B.^17 The amplified product was purified by using the QIAquick PCR purification kit (QIAGEN, Inc., Chatsworth, Calif.) and directly sequenced using primer pairs 8UA/907B and 774A/1485B as described previously.^18 DNA sequencing was performed at the W. M. Keck Foundation Biotechnology Resource Laboratory (New Haven, Conn.). Isolates were inoculated into Brucella broth with 15% glycerol (BBL, Maryland) and were stored at −70° C. Bacteria were grown overnight in Luria Broth (LB), inoculated into LB and grown to logarithmic phase as measured by OD600. Concentration of the logarithmic phase specimens was determined by serial plating, typically yielding 10^7-10^8 bacteria/ml.
Logarithmic phase bacterial cells were concentrated by centrifugation at 10.000 rpm for 5 min, Lysis of bacterial cells was performed by addition of 10 μl of one or more of the following […]. 0.1% Triton X-100 in 20 mM Tris-HCl, pH 8.0, 2 mM EDTA and 1 mg/ml lysozyme (Sigma). After incubation at room temperature, 50 μl of the detector probe (0.25 μM) in 2.5% bovine serum albumin (Sigma)—1 M phosphate buffer, pH 7.4, was added to the bacterial lysate. The detector probe/bacterial lysate mixture was incubated for 10 min at 65° C. to allow hybridization of the detector probe to target rRNA. 4 μl of the bacterial lysate/detector probe mixture was deposited on each of the working electrodes in the sensor array. The sensor array was incubated for 10 min at 65° C. in a humidified chamber. After washing and drying, 4 μl of 0.5 U/mil anti-fluorescein horseradish peroxidase (HRP) Fab conjugate (Roche, diluted in 0.5% casein in 1 M sodium phosphate buffer, pH 7.4) were deposited on each of the working electrodes for 10-15 min. After washing and drying, a prefabricated plastic well manifold (GeneFluidics) was bonded to the sensor array. 50 μl of HRP substrate solution (K-Blue Aqueous TMB, Neogen, Lexington, Ky.) was placed on each of the sensors in the array so as to cover all three of the electrodes. Measurements were immediately and simultaneously taken for all 16 sensors. The entire assay protocol was completed within 45 min from the initiation of bacterial lysis. Amperometric current vs. time was measured using a multichannel potentiostat (GeneFluidics). The voltage was fixed at −200 mV (vs. reference), and the electroreduction current was measured at 60 sec after the HRP redox reaction reached steady state. Negative controls were included in each experiment in which 1 M phosphate buffer, pH 7.4, was used as the target instead of bacterial lysate. All samples were analyzed in duplicate.
Experiments were performed on ATCC strains to verify probe specificity using a 16-sensor array “UTI chip” in which the UNI782C, EB1176C, EC434C, KE434C, PM187C, PA102C, and EF207C 5′-biotinylated capture probes (defined in Table 1) were tested in duplicate. The two remaining sensors in the array served as negative controls (using capture probe UNI782C without bacterial lysate). […]

E. coli 16S rRNA = assay: Amperometric detection of E. coli 16S rRNA with short probes at ambient temperature (Example 5); format: binding, Escherichia coli; conditions: for sensitivity (threshold): fivefold dilutions of E. coli cells
bacterial 16S rRNA [2] = assay: Species specificity of short probe pairs, 16 sensor array at ambient temperature (Example 5); format: binding
bacterial 16S rRNA [3] = assay: Clinical validity study: UTI Chip on blinded clinical urine specimens; format: binding
Protocol: Amperometric detection of bacterial 16S rRNA. An overview of the electrochemical sensor detection strategy is presented in panel C of FIG. 1. One ml of bacteria in Luria broth, inoculated clean urine, or clinical urine samples was centrifuged at 10,000×g for 5 min. The supernatant was discarded and the bacteria were lysed by resuspension of the pellet in 10 μl of 1 M NaOH and incubation at room temperature for 5 min. In some experiments, addition of 1M NaOH was preceded by resuspension of the bacterial pellet in 10 μl of 0.1% Triton X-100, 2 mM EDTA, and 1 mg/ml lysozyme (Sigma) in 20 mM Tris-HCl, pH 8.0, and incubation at room temperature for 5 min. 50 μl of the detector probe (0.25 μM) in 2.5% bovine serum albumin (Sigma, St. Louis, Mo.) 1 M phosphate buffer, pH 7.4, were added to the bacterial lysate and incubated for 10 min at 65° C. to allow target-probe hybridization. 4 μl of the bacterial lysate/detector probe mixture was deposited on each of the working electrodes in the sensor array and incubated for 15 min at 65° C. in a humidified chamber. After washing and drying, 4 μl of 0.5 U/ml anti-fluorescein horseradish peroxidase (HRP) Fab fragments (Roche, diluted in 0.5% casein in 10 mM phosphate buffered saline, pH 7.4) were deposited on each of the working electrodes for 15 min. After washing and drying, a prefabricated plastic well manifold (GeneFluidics, Monterey Park, Calif.) was bonded to the sensor array. The sensor array was put into the chip reader (FIG. 18) and 50 μl of 3,3′,5,5′-tetramethylbenzidine (TMB), H2O2 solution (K-Blue Low Activity TMB Substrate, Neogen, Lexington, Ky.) was placed on each of the sensors in the array so as to cover all three electrodes of each sensor. Electrochemical measurements are immediately and simultaneously taken for all 16 sensors. For each array, negative control (NC) sensors were tested including the UNI capture probe, detector probe, and 2.5% bovine serum albumin (Sigma, St, Louis, Mo.) in 1 M phosphate buffer, pH 7.4, instead of bacterial lysate. The entire assay protocol was completed within 45 min from the time when bacterial lysis was commenced. Amperometric current vs. time was measured using a multichannel potentiostat (GeneFluidics). The voltage was fixed at −200 mV (vs. reference), and the electroreduction current was measured at 60 s after the HRP redox reaction reached steady state.
Clinical validity study design. Clinical urine specimens were received from routine urine cultures collected from inpatients and outpatients and submitted to the UCLA Clinical Microbiology Laboratory. Routine plating on tripticase soy agar with 5% sheep blood was performed on each specimen for phenotypic identification and colony counting while an aliquot of each specimen was held at 4° C. overnight. On the day after plating, specimens were selected for inclusion in the study on the basis of a rapid indole test for the purpose of including uropathogens other than Escherichia coli in approximately one-half of the specimens. The other half of the specimens were divided between E. coli-containing specimens and specimens determined to have ““no significant growth” or no growth” (see definitions below). Because most UTIs involve a single uropathogen, specimens determined by the clinical microbiology laboratory to have more than one organism present were excluded. Blinded specimens selected for inclusion in the study were stripped of patient identifiers and any microbiological data before delivery to the research laboratory for testing with the electrochemical sensor array.
Experiments were performed on all specimens using the 16-sensor array ‘UTI Chip’, in which the UNI, EB, EC, PM, KE, PA, and EF capture probes (defined in Tables 1 and 2) were tested in duplicate. The two remaining sensors served as negative controls (including capture and detector probes without bacterial lysate). […]

[4] = tested on: 16S rRNA in lysates of uropathogens; assay: Species specificity of uropathogen probe pairs with the electrochemical sensor array (Example 1); format: binding; conditions: probe pairs of Table 1
[5] = specimens with Escherichia coli
[6] = specimens with Proteus mirabilis

In the case of “CCGCGGGTCCATCCATCAGCGACACCCGAAAGCGC (DNA CCGCGGGTCCATCCATCAGCGACACCCGAAAGCGC; sugars by position and backbone not given here; further chemistry not fully specified; listed as Enterococcus sp.) [EF171D]”, the improvement in sensitivity (Enterococcus 16S rRNA; 3′-fluorescein and continuity of hybridization sites vs 5′-fluorescein with gap) is reported as 24-25 fold and the “sensitivity of electrochemical sensor assay (cells detected)” value (Enterococcus 16S rRNA) is reported as 9,400 cells.

With “CCCACTTTCTCCCTCAGGACGTATGCGGTATTAGC (DNA CCCACTTTCTCCCTCAGGACGTATGCGGTATTAGC; chemistry not given here; listed as Pseudomonas aeruginosa) [PA111C]” the capture probe specificity (bacterial 16S rRNA [1]) was “P. aeruginosa”.

For “CGGACTACGACRYACTTTATGAGGTCCGCTTGCTC (DNA CGGACTACGACRYACTTTATGAGGTCCGCTTGCTC; chemistry not given here; listed as Enterobacter sp.) [EB1172C]”, the capture probe specificity (bacterial 16S rRNA [1]) was “positive for all members of the family Enterobacteriaceae tested and negative for P. aeruginosa and E. faecalis”.

With “EC439C (15 mer)/EC424D (15 mer): E. coli probe pair, SEQ ID NO: 44 and 45 (DNA 1 TATTAACTTTACTCC; DNA 2 CTTCCTCCCCGCTGA; chemistry not given here; listed as Escherichia coli)” the mean current (E. coli 16S rRNA) was 1605 negative nanoamperes, the “sensitivity (threshold)” value (E. coli 16S rRNA; listed as 15mer capture and detector probes) was “approximately 250 cells” and the “sensitivity (threshold)” value (E. coli 16S rRNA; listed as E. coli-specific 15mer probe pairs) was “approximately 173 cells”. The “cross-reactivity with P. aeruginosa” value (bacterial 16S rRNA [2]; ambient temperature) was “Weak cross-reactivity”, the Species detected (bacterial 16S rRNA [2]; ambient temperature hybridization) was “Ec” and the Species not detected (bacterial 16S rRNA [2]; ambient temperature, * cross-reactivity at a level significantly less than with the target species) was “Ea, Ef, Kp, Pa*, Pm”.

“CATCGTTTACGGCGTGGACTACCAGGG (DNA CATCGTTTACGGCGTGGACTACCAGGG; chemistry not given here) [UNI782C]” was tested, and the capture probe specificity (bacterial 16S rRNA [1]) was “detected all bacterial uropathogens tested”.

“TTGGTGAGCCGTTACCTCACCAACTAGCTAATGCA (DNA TTGGTGAGCCGTTACCTCACCAACTAGCTAATGCA; chemistry not given here; listed as Enterococcus sp.) [EF207C]” was tested, and the capture probe specificity (bacterial 16S rRNA [1]) was “E. faecalis”.

In the case of “GGGTTCATCCGATAGTGCAAGGTCCGAAGAGCCCC (DNA GGGTTCATCCGATAGTGCAAGGTCCGAAGAGCCCC; chemistry not given here; listed as Proteus mirabilis) [PM188C]”, the capture probe specificity (bacterial 16S rRNA [1]) is reported as “specific for P. mirabilis”.

In the case of “GTCCATCCATCAGCGACACCCGAAAGCGCCTTTCA (DNA GTCCATCCATCAGCGACACCCGAAAGCGCCTTTCA; sugars by position and backbone not given here; listed as Enterococcus sp.) [EF165D]”, the “sensitivity of electrochemical sensor assay (cells detected)” value (Enterococcus 16S rRNA) is reported as 232,000 cells.

In the case of “GTCAATGAGCAAAGGTATTAACTTTACTCCCTTCC (DNA GTCAATGAGCAAAGGTATTAACTTTACTCCCTTCC; chemistry not given here; listed as Escherichia coli) [EC434C]”, the capture probe specificity (bacterial 16S rRNA [1]) is reported as “positive for E. coli”.

With “GTCAATCGNCRAGGTTATTAACCTYAHCGCCTTCC (DNA GTCAATCGMCRAGGTTATTAACCTYAHCGCCTTCC; chemistry not given here; listed as Klebsiella pneumoniae) [KE434C]” the capture probe specificity (bacterial 16S rRNA [1]) was “positive for all Enterobacteriaceae except E. coli”.

B1: EC: Escherichia coli probe pair: capture 449 (35 mer) SEQ ID NO: 1, detector 408 (35 mer) SEQ ID NO: 2 (nucleic acid, listed as Escherichia coli)
DNA 1: GTCAATGAGCAAAGGTATTAACTTTACTCCCTTCC
DNA 2: CTGAAAGTACTTTACAACCCGAAGGCCTTCTTCAT
modifications: DNA 1: 5' {Biotin}, sugars by position and backbone not given here; DNA 2: 5' {Fluorescein}, sugars by position and backbone not given here
B1 was tested, and the “Mean (range)” value (bacterial 16S rRNA [3]; [5]) was 1.06 (0.48-1.59) log10 units over background, the “Positive/Total = Percent” value (bacterial 16S rRNA [3]; [5]) was “Ec 26/26 = 100%” and the Species detected [4] was “Ec”. The Species not detected [4] was “Cf, Ea, El Eo, Ko, Kp,; also recorded: Pa, Pm”.

B2: PM: Proteus mirabilis probe pair: capture 202 (35 mer) SEQ ID NO: 3, detector 162 (35 mer) SEQ ID NO: 4 (nucleic acid, listed as Proteus mirabilis)
DNA 1: GGGTTCATCCGATAGTGCAAGGTCCGAAGAGCCCC
DNA 2: GGTCCGTAGACATTATGCGGTATTAGCCACCGTTT
modifications: DNA 1: 5' {Biotin}, sugars by position and backbone not given here; DNA 2: 5' {Fluorescein}, sugars by position and backbone not given here
In the case of B2, the “Mean (range)” value (bacterial 16S rRNA [3]; [6]) is reported as 0.74 (0.48-0.96) log10 units over background, the “Positive/Total = Percent” value (bacterial 16S rRNA [3]; [6]) is reported as “Pm 3/3 = 100%” and the Species detected [4] is reported as “Pm”. For the same molecule, the Species not detected [4] was “Cf, Ea, Ec, El, Eo, Ko, Kp, Pa”.
